The record followed here is ChEMBL document CHEMBL1139640, “Water soluble prodrug of a COX-2 selective inhibitor suitable for intravenous administration in models of cerebral ischemia” (Bioorg Med Chem Lett, 2005).

In assay [1] the test system is Rattus norvegicus. The assay is described as follows: Plasma concentration of compound 1 in Sprague-Dawley rats upon 2 mg/kg iv dose of prodrug after 30 minutes. Format: functional, organism-based. On the set-up: dose 2 mg/kg.
In assay [2] the test system is Rattus norvegicus. Description: Concentration of compound 1 in brain of Sprague-Dawley rats upon 10 mg/kg iv dose after 3 hours. On the set-up: dose 10 mg/kg. Format: functional, organism-based.
Assay [3] has as its system Rattus norvegicus. The assay is described as follows: Concentration of compound 1 in plasma of Sprague-Dawley rats upon 10 mg/kg iv dose after 3 hours. Type of assay: functional, organism-based. Also noted: dose 10 mg/kg.
The target of assay [4] is T1, Prostaglandin G/H synthase 2 (Homo sapiens, UniProt P35354).
T1 sequence (P35354 whole entry): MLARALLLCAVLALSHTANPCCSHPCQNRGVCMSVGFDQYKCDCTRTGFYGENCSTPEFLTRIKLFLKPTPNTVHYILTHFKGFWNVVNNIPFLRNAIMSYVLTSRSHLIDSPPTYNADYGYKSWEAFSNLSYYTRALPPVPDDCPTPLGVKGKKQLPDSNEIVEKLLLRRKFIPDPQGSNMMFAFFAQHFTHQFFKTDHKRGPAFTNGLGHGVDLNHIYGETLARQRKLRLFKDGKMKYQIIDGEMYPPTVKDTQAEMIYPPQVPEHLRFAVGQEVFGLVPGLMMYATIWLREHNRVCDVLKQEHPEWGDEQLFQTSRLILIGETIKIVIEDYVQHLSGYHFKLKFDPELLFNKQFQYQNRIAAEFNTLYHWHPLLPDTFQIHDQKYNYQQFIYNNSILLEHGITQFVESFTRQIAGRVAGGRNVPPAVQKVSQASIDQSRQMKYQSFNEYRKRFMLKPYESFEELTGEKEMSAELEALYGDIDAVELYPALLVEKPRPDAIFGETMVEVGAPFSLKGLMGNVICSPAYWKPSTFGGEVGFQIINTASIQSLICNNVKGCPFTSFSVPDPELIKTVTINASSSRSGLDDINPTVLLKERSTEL
The assay is described as follows: Inhibitory concentration against prostaglandin G/H synthase 2 in human whole blood.

In assay [5] the target is Prostaglandin G/H synthase 1 (Homo sapiens, UniProt P23219). Description: Inhibitory concentration against prostaglandin G/H synthase 1 in human whole blood. Type of assay: tissue-based.
Assay [6] deals with Rattus norvegicus. The assay is described as follows: Concentration of compound 16 in plasma of Sprague-Dawley rats upon 10 mg/kg bolus+ 5 mg/Kg/h infusion of compound after 24 hours. Format: functional, organism-based.
Assay [7] relates to Rattus norvegicus. Description: Concentration of compound 16 in brain of Sprague-Dawley rats upon 5 mg/kg bolus+ 3 mg/Kg/h infusion of compound after 24 hours. Format: functional, organism-based.
Assay [8] relates to Rattus norvegicus. The assay is described as follows: Concentration of compound 16 in brain of Sprague-Dawley rats upon 10 mg/kg bolus+ 5 mg/Kg/h infusion of compound after 24 hours. Type of assay: functional, organism-based.
Assay [9] relates to Rattus norvegicus. Description: Concentration of compound 16 in plasma of Sprague-Dawley rats upon 5 mg/kg bolus+ 3 mg/Kg/h infusion of compound after 6 hours. Type of assay: functional, organism-based.
For assay [10], the system named is Rattus norvegicus. Description: Concentration of compound 16 in plasma of Sprague-Dawley rats upon 10 mg/kg bolus+ 5 mg/Kg/h infusion of compound after 6 hours. Format: functional, organism-based.
The test system of assay [11] is Rattus norvegicus. The assay is described as follows: Ratio of concentration of compound 16 in brain to that of plasma of Sprague-Dawley rats upon 5 mg/kg bolus+ 3 mg/Kg/h infusion of compound after 24 hours. Format: functional.
The subject of assay [12] is Rattus norvegicus. The assay is described as follows: Concentration of compound 16 in plasma of Sprague-Dawley rats upon 5 mg/kg bolus+ 3 mg/Kg/h infusion of compound after 24 hours. Format: functional, organism-based.
In assay [13] the test system is Rattus norvegicus. The assay is described as follows: Ratio of concentration of compound 16 in brain to that of plasma of Sprague-Dawley rats upon 10 mg/kg bolus+ 5 mg/Kg/h infusion of compound after 24 hours. Format: functional.

SMILES strings stand for the structures. pIC50: −log10 of the molar value.

Prostaglandin G/H synthase 1, sequence (P23219 whole entry, the tested form may be a part): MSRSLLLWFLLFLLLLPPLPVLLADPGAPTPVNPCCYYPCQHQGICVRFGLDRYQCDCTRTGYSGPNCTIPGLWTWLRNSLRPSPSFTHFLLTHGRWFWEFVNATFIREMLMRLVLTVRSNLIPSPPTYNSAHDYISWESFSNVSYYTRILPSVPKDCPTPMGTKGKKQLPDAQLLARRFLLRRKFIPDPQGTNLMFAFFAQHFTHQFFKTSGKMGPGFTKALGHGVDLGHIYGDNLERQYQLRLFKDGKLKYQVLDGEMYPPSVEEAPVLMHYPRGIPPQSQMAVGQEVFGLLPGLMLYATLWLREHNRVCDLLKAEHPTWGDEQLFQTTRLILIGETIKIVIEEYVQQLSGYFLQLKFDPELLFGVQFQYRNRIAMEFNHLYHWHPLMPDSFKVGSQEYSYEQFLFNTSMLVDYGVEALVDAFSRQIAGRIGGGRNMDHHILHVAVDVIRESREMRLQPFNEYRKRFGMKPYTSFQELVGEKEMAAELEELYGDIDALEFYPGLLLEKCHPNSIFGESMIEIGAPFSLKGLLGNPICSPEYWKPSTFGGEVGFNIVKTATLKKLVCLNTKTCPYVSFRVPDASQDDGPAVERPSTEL

As for `CC(=O)OC/C(=C(\C(=O)OCC[N+](C)(C)C)c1ccc(F)c(F)c1)c1ccc(S(C)(=O)=O)cc1`, the figures for the Concentration in assay [1], in assay [2] and in assay [3] were 0.9 µM, 0.7 µM and 1.4 µM, respectively.

Turning to `CCOC(=O)[C@H](N)COC(=O)/C(=C(\COC(C)=O)c1ccc(S(C)(=O)=O)cc1)c1ccc(F)c(F)c1`, the Concentration in [1] was determined as 1.4 µM.

Consider `CCOC(=O)/C(=C(\COC(=O)[C@@H](N)CCCCN)c1ccc(S(C)(=O)=O)cc1)c1ccc(F)c(F)c1`, for which, in assay [1], the Concentration came out at 0.4 µM.

For the molecule `CS(=O)(=O)c1ccc(C2=C(c3cccc(F)c3)C(=O)OC2)cc1`, the pIC50 – broadly, −log10 of the IC50, conventionally taken in molar units – was 5.89 in assay [4] and 4.19 in [5].

On to `CC(=O)OC/C(=C(\C(=O)OCC[N+](C)(C)C)c1cccc(F)c1)c1ccc(S(C)(=O)=O)cc1.[Br-]`, for which the Concentration was 20 µM in assay [6]; 5.5 µM in assay [7]; 11 µM in assay [8]; 6 µM in [9]; 16 µM in assay [10]; 9.2 µM in assay [12]. Besides, the Ratio in assay [11] is reported as 59%; in [13] it was 55%.
